Results on 22 compounds are retold here after patent US8999974B2, “Acyl piperazine derivatives as TTX-S blockers” (Raqualia Pharma Inc., priority 2010, dated 2015).

The structures appear in SMILES notation. pIC50: −log10 of the molar value. Where only a bound is given, the exact number is not on record here.

The pIC50 is −log10 of the IC50, conventionally taken in molar units.

The target of one test is T1, human NaV1.3 (Homo sapiens, UniProt Q9NY46).
T1 construct: expressed in transfected cells; host or cells: HEK293
Kind of test: FRET assay (EFS, FDSS) on HEK293 cells expressing human NaV1.3 channels. In kind it is cell-based. The note with it: FRET assay, HEK293 cells expressing human NaV1.3; read-out: IC50 against Nav1.3. In short, it runs like this:
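Membrane potential in HEK293 cells stably expressing human NaV1.3, read by FRET (CC2-DMPE 10 µM / DiSBAC2(3) 15 µM with 0.555 mM VABSC-1) after electrical field stimulation, in HEPES-buffered saline pH 7.4. Compounds added after dye loading at room temperature. IC50 from normalized 440 nm fluorescence ratios.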

The target of another test is T2, human Nav1.7 (Homo sapiens, UniProt Q15858).
T2 construct: expressed in transfected cells; host or cells: CHO
Kind of test: FRET assay (EFS, FDSS) on CHO cells expressing human NaV1.7 channels. In kind it is cell-based. The following applies: FRET assay, CHO cells expressing human NaV1.7; read-out: IC50 against Nav1.7. The protocol: This screen was used to determine the effects of compounds on human NaV1.3, human Nav1.7, and human Nav1.5 channels, utilising electrical field stimulation (EFS) system in 96-well plate format on FDSS (Hamamatsu Photonics) platform. The change of membrane potential was monitored with FRET dye pair, oxonol (DiSBAC2(3)) and coumarin (CC2-DMPE).
CHO cells expressing human NaV1.7 channels were grown in T225 flasks, in a 5% CO2 humidified incubator to about 80% confluence. Media composition consisted of HAM/F12 with Glutamax I, 10% FCS, 100 units/ml Penicillin and 100 microgram/ml Hygromycin.
Protocol: • Seeded each cell lines (1×10^5 cells/well) into poly-D-lysine coated 96-well plates prior to experimentation. • Incubated at 37° C. in 5% CO2 for 24 hours. • Washed each well with assay buffer (140 mM NaCl, 4.5 mM KCl, 10 mM D-Glucose, 2 mM CaCl2, 1 mM MgCl2, 10 mM HEPES, pH 7.4 adjusted with NaOH) twice. • Added 1st loading solution containing 10 microM CC2-DMPE and 0.06% Pluronic F-127 in assay buffer. • Incubated the plate at room temperature in dark for 1 hour. • Removed 1st loading solution and added 2nd loading solution containing 15 microM DiSBAC2(3), 0.555 mM VABSC-1 and 0.004% Pluronic F-127 in assay buffer. • Placed the plate under the dark at room temperature for 25 minutes. • Added compound solutions into the assay plate. • Set the assay plate in FDSS and placed an EFS device on the plate. • Measured EFS-induced fluorescent response by FDSS.
The data were analyzed and reported as normalized ratios of intensities measured at […]. The process of calculating these ratios was performed as follows:
[formula] This analysis was performed using a computerized specific program designed for FDSS generated data. Fluorescence ratio values were plotted using XLfit to determine an IC50 value for each compound.

T1 sequence (Q9NY46 whole entry): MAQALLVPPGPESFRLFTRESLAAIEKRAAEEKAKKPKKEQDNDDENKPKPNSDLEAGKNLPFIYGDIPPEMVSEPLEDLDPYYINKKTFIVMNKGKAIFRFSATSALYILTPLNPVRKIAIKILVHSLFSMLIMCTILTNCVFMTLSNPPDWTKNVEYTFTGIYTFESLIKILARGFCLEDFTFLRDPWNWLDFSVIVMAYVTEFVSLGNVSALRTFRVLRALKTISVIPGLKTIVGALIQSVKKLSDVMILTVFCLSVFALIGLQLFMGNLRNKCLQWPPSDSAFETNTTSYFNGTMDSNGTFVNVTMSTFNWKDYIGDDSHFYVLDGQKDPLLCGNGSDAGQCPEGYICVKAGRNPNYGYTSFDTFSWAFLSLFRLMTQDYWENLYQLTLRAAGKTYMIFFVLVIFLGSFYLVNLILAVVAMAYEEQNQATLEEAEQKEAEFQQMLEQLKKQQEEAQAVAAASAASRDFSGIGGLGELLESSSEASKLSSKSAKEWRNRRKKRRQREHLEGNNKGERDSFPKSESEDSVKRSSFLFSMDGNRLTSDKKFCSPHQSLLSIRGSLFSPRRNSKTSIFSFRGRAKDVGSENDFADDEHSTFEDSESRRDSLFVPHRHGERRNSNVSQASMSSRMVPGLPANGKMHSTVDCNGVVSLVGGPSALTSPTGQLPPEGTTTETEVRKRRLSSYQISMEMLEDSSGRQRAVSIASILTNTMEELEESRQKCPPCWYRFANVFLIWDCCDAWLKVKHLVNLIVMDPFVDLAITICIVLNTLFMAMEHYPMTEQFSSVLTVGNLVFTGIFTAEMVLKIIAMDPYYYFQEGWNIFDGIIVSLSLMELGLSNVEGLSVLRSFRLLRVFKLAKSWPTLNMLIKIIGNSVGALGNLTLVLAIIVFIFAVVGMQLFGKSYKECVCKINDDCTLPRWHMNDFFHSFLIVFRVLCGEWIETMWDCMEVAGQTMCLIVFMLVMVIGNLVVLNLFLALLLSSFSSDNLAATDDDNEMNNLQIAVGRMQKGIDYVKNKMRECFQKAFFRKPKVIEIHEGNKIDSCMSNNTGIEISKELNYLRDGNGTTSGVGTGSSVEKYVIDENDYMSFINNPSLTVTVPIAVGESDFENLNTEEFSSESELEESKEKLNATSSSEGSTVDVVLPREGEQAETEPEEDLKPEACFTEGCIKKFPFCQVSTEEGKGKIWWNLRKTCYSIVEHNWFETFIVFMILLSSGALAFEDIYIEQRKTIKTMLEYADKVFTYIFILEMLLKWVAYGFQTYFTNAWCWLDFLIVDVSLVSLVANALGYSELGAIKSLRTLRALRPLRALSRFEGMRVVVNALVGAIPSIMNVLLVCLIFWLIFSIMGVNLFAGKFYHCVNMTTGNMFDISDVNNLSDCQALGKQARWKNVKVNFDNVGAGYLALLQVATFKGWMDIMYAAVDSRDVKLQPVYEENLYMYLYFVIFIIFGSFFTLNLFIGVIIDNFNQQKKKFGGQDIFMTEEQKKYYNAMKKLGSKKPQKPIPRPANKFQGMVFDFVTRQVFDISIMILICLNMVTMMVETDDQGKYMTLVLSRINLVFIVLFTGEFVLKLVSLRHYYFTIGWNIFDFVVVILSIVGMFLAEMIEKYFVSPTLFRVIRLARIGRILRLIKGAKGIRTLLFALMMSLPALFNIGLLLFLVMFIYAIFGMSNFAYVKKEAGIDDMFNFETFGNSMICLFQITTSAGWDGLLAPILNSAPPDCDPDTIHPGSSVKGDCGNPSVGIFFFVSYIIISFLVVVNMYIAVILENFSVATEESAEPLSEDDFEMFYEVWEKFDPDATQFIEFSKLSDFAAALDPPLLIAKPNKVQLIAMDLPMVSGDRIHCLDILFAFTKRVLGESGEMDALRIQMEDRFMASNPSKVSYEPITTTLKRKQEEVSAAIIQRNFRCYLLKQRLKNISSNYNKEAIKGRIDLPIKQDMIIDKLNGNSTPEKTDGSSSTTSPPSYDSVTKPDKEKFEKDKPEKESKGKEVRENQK
T2 sequence (Q15858 whole entry): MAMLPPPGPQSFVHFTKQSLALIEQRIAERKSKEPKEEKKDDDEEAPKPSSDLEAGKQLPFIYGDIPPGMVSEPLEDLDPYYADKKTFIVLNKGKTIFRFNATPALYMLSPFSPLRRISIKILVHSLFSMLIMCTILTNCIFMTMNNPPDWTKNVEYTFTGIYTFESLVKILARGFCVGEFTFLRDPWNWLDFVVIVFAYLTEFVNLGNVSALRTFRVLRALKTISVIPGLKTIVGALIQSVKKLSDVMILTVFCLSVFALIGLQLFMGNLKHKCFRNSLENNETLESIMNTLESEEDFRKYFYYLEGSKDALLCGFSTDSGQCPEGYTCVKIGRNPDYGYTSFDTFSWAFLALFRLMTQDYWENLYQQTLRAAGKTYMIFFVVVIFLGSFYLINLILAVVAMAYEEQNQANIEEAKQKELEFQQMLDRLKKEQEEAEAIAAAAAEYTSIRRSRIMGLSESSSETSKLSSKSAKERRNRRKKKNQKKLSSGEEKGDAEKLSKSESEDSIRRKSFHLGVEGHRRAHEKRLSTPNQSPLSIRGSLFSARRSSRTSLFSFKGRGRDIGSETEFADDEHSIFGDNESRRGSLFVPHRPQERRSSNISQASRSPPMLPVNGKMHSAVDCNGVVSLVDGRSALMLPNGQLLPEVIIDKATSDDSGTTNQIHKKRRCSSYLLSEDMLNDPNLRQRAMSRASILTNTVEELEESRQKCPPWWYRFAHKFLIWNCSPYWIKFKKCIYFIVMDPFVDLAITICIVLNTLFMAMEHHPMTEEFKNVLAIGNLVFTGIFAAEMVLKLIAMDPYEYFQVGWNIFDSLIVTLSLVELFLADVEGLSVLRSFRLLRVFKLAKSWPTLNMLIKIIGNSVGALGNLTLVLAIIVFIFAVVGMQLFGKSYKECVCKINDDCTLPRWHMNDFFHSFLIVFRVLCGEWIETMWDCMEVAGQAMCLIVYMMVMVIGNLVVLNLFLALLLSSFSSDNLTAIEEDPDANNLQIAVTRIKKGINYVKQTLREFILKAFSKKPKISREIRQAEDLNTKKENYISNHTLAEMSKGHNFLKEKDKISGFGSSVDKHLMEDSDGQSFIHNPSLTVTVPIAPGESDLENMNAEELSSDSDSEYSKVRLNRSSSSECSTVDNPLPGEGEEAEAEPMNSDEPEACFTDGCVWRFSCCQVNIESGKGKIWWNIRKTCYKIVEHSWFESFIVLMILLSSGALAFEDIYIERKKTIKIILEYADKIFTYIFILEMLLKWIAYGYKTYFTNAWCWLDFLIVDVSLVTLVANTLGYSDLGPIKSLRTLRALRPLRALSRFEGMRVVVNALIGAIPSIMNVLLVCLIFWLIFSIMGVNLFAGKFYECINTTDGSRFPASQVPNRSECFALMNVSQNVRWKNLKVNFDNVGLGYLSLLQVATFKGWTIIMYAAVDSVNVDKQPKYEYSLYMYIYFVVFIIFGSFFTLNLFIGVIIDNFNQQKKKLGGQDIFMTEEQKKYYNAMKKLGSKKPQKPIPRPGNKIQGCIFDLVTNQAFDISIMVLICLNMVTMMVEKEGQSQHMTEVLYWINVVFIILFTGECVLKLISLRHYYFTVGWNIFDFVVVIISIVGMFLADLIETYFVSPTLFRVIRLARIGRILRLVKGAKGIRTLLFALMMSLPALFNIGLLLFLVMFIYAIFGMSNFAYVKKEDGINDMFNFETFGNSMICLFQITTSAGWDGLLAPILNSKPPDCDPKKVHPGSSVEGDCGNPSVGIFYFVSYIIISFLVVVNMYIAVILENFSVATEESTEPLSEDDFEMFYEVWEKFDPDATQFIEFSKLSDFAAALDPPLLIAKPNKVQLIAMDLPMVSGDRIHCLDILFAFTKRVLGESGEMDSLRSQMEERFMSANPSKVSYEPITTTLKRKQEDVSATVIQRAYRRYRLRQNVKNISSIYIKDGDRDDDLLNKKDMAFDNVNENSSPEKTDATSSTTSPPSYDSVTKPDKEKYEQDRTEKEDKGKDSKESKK

Take `CC(C)COc1cc(N2CCN(C(=O)CCOc3ccc(F)cc3)CC2)ncn1` [Example 89, 3-(4-fluorophenoxy)-1-(4-(6-isobutoxypyrimidin-4-yl)piperazin-1-yl)propan-1-one]: the pIC50 at human NaV1.3 and at human Nav1.7 was more than 5.52 each time.
`CC(C)COc1cc(N2CCN(C(=O)c3cc(-c4ccccc4)on3)CC2)ncn1` [Example 90]: the pIC50 at human NaV1.3 and at human Nav1.7 was more than 5.52 each time.
`CC(C)COc1cc(N2CCN(C(=O)Cn3nc4ccccc4n3)CC2)ncn1` [Example 105, 2-(2H-benzo[d][1,2,3]triazol-2-yl)-1-(4-(6-isobutoxypyrimidin-4-yl)piperazin-1-yl)ethanone]: the pIC50 at human NaV1.3 and on human Nav1.7 was more than 5.52 throughout.
`CC(C)COc1cc(N2CCN(C(=O)CSc3ccccc3)CC2)ncn1` [Example 120, 1-(4-(6-isobutoxypyrimidin-4-yl)piperazin-1-yl)-2-(phenylthio)ethanone]: the pIC50 at human NaV1.3 and on human Nav1.7 was more than 5.52 in each case.
Consider `CC(C)COc1cc(N2CCN(C(=O)COc3ccc(F)c4cccnc34)CC2)ncn1` [Example 129, 2-((5-fluoroquinolin-8-yl)oxy)-1-(4-(6-isobutoxypyrimidin-4-yl)piperazin-1-yl)ethanone], for which the pIC50 at human NaV1.3 and at human Nav1.7 was more than 5.52 in each case.
Turning to `CC(C)COc1cc(N2CCN(C(=O)CCOc3ccccc3)CC2)ncn1` [Example 131, 1-(4-(6-isobutoxypyrimidin-4-yl)piperazin-1-yl)-3-phenoxypropan-1-one], the pIC50 on human NaV1.3 and at human Nav1.7 was more than 5.52 throughout.
As for `Cc1cccc(OCCC(=O)N2CCN(c3cc(OCC(C)C)ncn3)CC2)c1` [Example 132, 1-(4-(6-isobutoxypyrimidin-4-yl)piperazin-1-yl)-3-(m-tolyloxy)propan-1-one], the pIC50 on human NaV1.3 and at human Nav1.7 was more than 5.52 each time.
Take `CC(C)COc1cc(N2CCN(C(=O)c3cc(-c4ccccc4)n(C)n3)CC2)ncn1` [Example 133, (4-(6-isobutoxypyrimidin-4-yl)piperazin-1-yl)(1-methyl-5-phenyl-1H-pyrazol-3-yl)methanone]: the pIC50 at human NaV1.3 and on human Nav1.7 was more than 5.52 in each case.
`O=C(CCOc1ccc(F)cc1)N1CCN(c2cc(OCC(F)(F)F)ncn2)CC1` [Example 139, 3-(4-fluorophenoxy)-1-(4-(6-(2,2,2-trifluoroethoxy)pyrimidin-4-yl)piperazin-1-yl)propan-1-one]: the pIC50 on human NaV1.3 and on human Nav1.7 was more than 5.52 each time.
As for `CC(C)COc1cc(N2CCN(C(=O)COc3cccc4c3ccn4C)CC2)ncn1` [Example 141, 1-(4-(6-isobutoxypyrimidin-4-yl)piperazin-1-yl)-2-((1-methyl-1H-indol-4-yl)oxy)ethanone], the negative-log IC50 (pIC50) on human NaV1.3 and on human Nav1.7 was more than 5.52 each time.
On to `CC(C)COc1cc(N2CCN(C(=O)COc3cccc(OC(F)(F)F)c3)CC2)ncn1` [Example 145, 1-(4-(6-isobutoxypyrimidin-4-yl)piperazin-1-yl)-2-(3-(trifluoromethoxy)phenoxy)ethanone], for which the pIC50 at human NaV1.3 and at human Nav1.7 was more than 5.52 throughout.
Take `O=C(Cn1nc2ccccc2n1)N1CCN(c2cc(OCC(F)(F)F)ncn2)CC1` [Example 146, 2-(2H-benzo[d][1,2,3]triazol-2-yl)-1-(4-(6-(2,2,2-trifluoroethoxy)pyrimidin-4-yl)piperazin-1-yl)ethanone]: the pIC50 on human NaV1.3 and at human Nav1.7 was more than 5.52 throughout.
As for `CC(C)Oc1cc(N2CCN(C(=O)c3csc(-c4ccccc4)n3)CC2)ncn1` [Example 165, (4-(6-isopropoxypyrimidin-4-yl)piperazin-1-yl)(2-phenylthiazol-4-yl)methanone], the negative-log IC50 (pIC50) at human NaV1.3 and on human Nav1.7 was more than 5.52 each time.
With `CC(C)COc1cc(N2CCN(C(=O)c3csc(Cc4ccccc4)n3)CC2)ncn1` [Example 167, (2-benzylthiazol-4-yl)(4-(6-isobutoxypyrimidin-4-yl)piperazin-1-yl)methanone], the pIC50 at human NaV1.3 and at human Nav1.7 was more than 5.52 in each case.
For the compound `CC(C)COc1cc(N2CCN(C(=O)COCc3ccc(F)cc3)CC2)ncn1` [Example 168, 2-((4-fluorobenzyl)oxy)-1-(4-(6-isobutoxypyrimidin-4-yl)piperazin-1-yl)ethanone], the pIC50 at human NaV1.3 and at human Nav1.7 was more than 5.52 in each case.
On to `Cc1c(C(=O)N2CCN(c3cc(OCC(C)C)ncn3)CC2)cnn1-c1ccc(F)cc1` [Example 169, (1-(4-fluorophenyl)-5-methyl-1H-pyrazol-4-yl)(4-(6-isobutoxypyrimidin-4-yl)piperazin-1-yl)methanone], for which the pIC50 at human NaV1.3 and at human Nav1.7 was more than 5.52 throughout.
Regarding `Cc1nc(-c2cccc(C(=O)N3CCN(c4cc(OCC(C)C)ncn4)CC3)c2)cs1` [Example 187, (4-(6-isobutoxypyrimidin-4-yl)piperazin-1-yl)(3-(2-methylthiazol-4-yl)phenyl)methanone], the pIC50 on human NaV1.3 and at human Nav1.7 was more than 5.52 in each case.
Consider `Cc1nc(-c2ccccc2)oc1C(=O)N1CCN(c2cc(OCC(C)C)ncn2)CC1` [Example 208, (4-(6-isobutoxypyrimidin-4-yl)piperazin-1-yl)(4-methyl-2-phenyloxazol-5-yl)methanone], for which the pIC50 on human NaV1.3 and on human Nav1.7 was more than 5.52 each time.
Turning to `Cn1nc(C(=O)N2CCN(c3cc(OCC(F)(F)F)ncn3)CC2)c2cc(F)ccc21` [Example 212, (5-fluoro-1-methyl-1H-indazol-3-yl)(4-(6-(2,2,2-trifluoroethoxy)pyrimidin-4-yl)piperazin-1-yl)methanone], the pIC50 on human NaV1.3 and on human Nav1.7 was more than 5.52 in each case.
As for `CC(C)COc1cc(N2CCN(C(=O)c3csc(-c4ccccc4)n3)CC2)ncn1` [Example 213, (4-(6-isobutoxypyrimidin-4-yl)piperazin-1-yl)(2-phenylthiazol-4-yl)methanone], the pIC50 at human NaV1.3 and at human Nav1.7 was more than 5.52 in each case.
On to `CCn1nc(C(=O)N2CCN(c3cc(OCC(F)(F)F)ncn3)CC2)cc1C(F)(F)F` [Example 229, (1-ethyl-5-(trifluoromethyl)-1H-pyrazol-3-yl)(4-(6-(2,2,2-trifluoroethoxy)pyrimidin-4-yl)piperazin-1-yl)methanone], for which the pIC50 at human NaV1.3 and on human Nav1.7 was more than 5.52 throughout.
Consider `O=C(c1csc(-c2ccccn2)n1)N1CCN(c2cc(OCC(F)(F)F)ncn2)CC1` [Example 244, (2-(pyridin-2-yl)thiazol-4-yl)(4-(6-(2,2,2-trifluoroethoxy)pyrimidin-4-yl)piperazin-1-yl)methanone], for which the pIC50 at human NaV1.3 and on human Nav1.7 was more than 5.52 throughout.
